Publication PMC10342010, “Djakonoviosides A, A1, A2, B1–B4 — Triterpene Monosulfated Tetra- and Pentaosides from the Sea Cucumber Cucumaria djakonovi: The First Finding of a Hemiketal Fragment in the Aglycones; Activity against Human Breast Cancer Cell Lines” (International Journal of Molecular Sciences, 2023)
Where two headings read alike, the source gives them in different places.

Experiments:
HL-60 cells = assay: Cytotoxic activity (MTS assay); format: cell-based, human; details: HL-60, MTS, 24 h; read-out: Cytotoxicity, IC50 HL-60
Protocol: Then, the cells were incubated with 10 µL MTS ([3-(4,5-dimethylthiazol-2-yl)-5-(3-carboxymethoxyphenyl)-2-(4-sulfophenyl)-2H-tetrazolium) for 4 h, and the absorbance in each well was determined at 490/630 nm with a PHERA star FS plate reader (BMG Labtech, Ortenberg, Germany). The experiments were conducted in triplicate.

MDA-MB-231 cells [1] = assay: Colony formation (clonogenic) assay; format: cell-based, human; details: MDA-MB-231, concentration 0.5 μM
Protocol: The influence of glycosides on the proliferation of MDA-MB-231 cells was analyzed by clonogenic assay. Briefly, MDA-MB-231 cells were cultured on 6-well plates at a density of 1 × 10^3 cells per well in control media (MEM media, 10% FBS, 10,000 U/mL of penicillin and 10,000 μg/mL of streptomycin) or in media supplemented with different concentrations of glycosides. Cells were incubated for one week at 37 °C with 5% CO2 until the cells in the control plates formed colonies that were visible to the eye and were of a substantial size (at least 50 cells per colony). For fixation and staining, the media were removed and the cells were washed twice with PBS. The colonies were fixed with methanol for 25 min, then washed with PBS and stained with 0.5% crystal violet solution for 25 min at room temperature. The plates were then washed with water and air dried.

MDA-MB-231 cells [2] = assay: Wound scratch migration assay; format: cell-based, human; details: MDA-MB-231, 0.05 µM, 24 h
Text: To analyze the influence of the tested compounds on tumor cell migration, MDA-MB-231 cells attached to the plate’s plastic bottom were separated by a silicone insert from special migration plates (Culture-insert 2 Well 24, ibiTreat); then, the insert was removed, leaving a gap of 500 ± 50 μm (according to the manufacturer’s data) between the cells. The cells were washed twice by PBS to remove cell debris and floating cells and loaded with a fluorescent probe, a (5,6)-carboxyfluorescein succinimidyl ester (CFDA SE) dye (LumiTrace CFDA SE kit, Lumiprobe, Moscow, Russia). The initial solution of CFDA SE at a concentration of 5 mM in DMSO was dissolved in PBS to prepare a 10 μM solution and was added to the cells for 5 min at 37 °C; then, the cells were washed twice with PBS, and fresh culture medium was added. After that, the cells were treated with various concentrations of glycosides and left for 8 and 24 h. Cells treated with culture medium only were used as control. Cell migration into the wound area was then observed under a fluorescence microscope (MIB-2-FL, LOMO, Saint Peterburg, Russia) with an objective ×10 magnification.

human erythrocytes = assay: Hemolytic activity; format: cell-based; details: 1 h incubation at 37 °C, 50% hemolysis
Protocol: Erythrocytes were obtained from human blood (AB(IV) Rh+) by centrifugation with phosphate-buffered saline (PBS) (pH 7.4) at 4 °C for 5 min by 450 g on a LABOFUGE 400R centrifuge (Heraeus, Hanau, Germany) three times. Then, the erythrocytes residue was resuspended in ice cold phosphate saline buffer (pH 7.4) to a final optical density of 1.5 at 700 nm and kept on ice. For the hemolytic assay, 180 µL of erythrocyte suspension was mixed with 20 µL of test compound solution, as well as control, chitonoidoside L [33], in V-bottom 96-well plates. After 1 h of incubation at 37 °C, the plates were exposed to centrifugation for 10 min at 900 g in a laboratory LMC-3000 centrifuge (Biosan, Riga, Latvia). Then, 100 µL of supernatant was carefully decanted and transferred into new flat plates. The values of the lysis of the erythrocytes were found by measuring the concentration of hemoglobin in the supernatant with a Multiskan FC microplate photometer (Thermo Fisher Scientific, Waltham, MA, USA); λ = 570 nm. […] All the experiments were carried out in triple repetitions; p < 0.01.

HEK293 cells = assay: Cytotoxic activity (MTT assay); format: cell-based, human; details: HEK293, MTT, 24 h; read-out: Cytotoxicity, IC50 HEK293
Protocol: (§1) After incubation, the glycosides with medium were replaced by 100 μL of fresh medium. Then, 10 μL of MTT (3-(4,5-dimethylthiazol-2-yl)-2,5-diphenyltetrazolium bromide) (Sigma-Aldrich, St. Louis, MO, USA) stock solution (5 mg/mL) was added to each well, followed by incubation of the microplate for 4 h. After this procedure, 100 μL of SDS-HCl solution (1 g SDS/10 mL d-H2O/17 μ[…] HCl) was added to each well and incubated for 18 h. The absorbance of the converted dye formazan was determined with a Multiskan FC microplate photometer (Thermo Fisher Scientific, Waltham, MA, USA) at 570 nm.

MDA-MB-231 cells [3] = assay: Cytotoxic activity (MTT assay); format: cell-based, human; details: for IC50: MDA-MB-231, MTT, 24 h, read-out: Cytotoxicity, IC50 MDA-MB-231
Protocol: as §1

MCF-7 cells = assay: Cytotoxic activity (MTT assay); format: cell-based, human; details: MCF-7, MTT, 24 h; read-out: Cytotoxicity, IC50 MCF-7
Protocol: as §1

T-47D cells = assay: Cytotoxic activity (MTT assay); format: cell-based, human; details: T-47D, MTT, 24 h; read-out: Cytotoxicity, IC50 T-47D
Protocol: as §1

In the case of COC1C(O)C(CO)OC(OC2C(O)COC(OC3C(C)OC(OC4C(OC5CCC6(C)C7CCC89C(=O)OC(C)(CC(=O)CC(C)C)C8C(OC(C)=O)CC9(C)C7=CCC6C5(C)C)OCC(OS(=O)(=O)[O-])C4O)C(O)C3O)C2O)C1O.[Na+] (centres unmarked) [okhotoside A1-1], the IC50 (HL-60 cells) is reported as 2.52 ± 0.26 µM, the “Inhibition of formation and growth of colonies, % of the control” value (MDA-MB-231 cells [1]) is reported as 70.76 ± 0.13% and the “Inhibition of migration in comparison with control” value (MDA-MB-231 cells [2]) is reported as 74.76 ± 4.41%. For the same molecule, the “ED50, Erythrocytes” value (human erythrocytes) was 0.75 ± 0.09 µM, the IC50 (HEK293 cells) was 3.17 ± 0.7 µM and the EC50 (MDA-MB-231 cells [3]; MDA-MB-231, 24 h, read-out: Cytotoxic effect EC50 on MDA-MB-231, 24 h) was 2.34 µM. It also gave an EC50 (MDA-MB-231 cells [3]; MDA-MB-231, 48 h, read-out: Cytotoxic effect EC50 on MDA-MB-231, 48 h) of 2.05 µM, an EC50 (MDA-MB-231 cells [3]; MDA-MB-231, 72 h, read-out: Cytotoxic effect EC50 on MDA-MB-231, 72 h) of 1.73 µM and an IC50 (MDA-MB-231 cells [3]) of 2.34 ± 0.53 µM. It also gave an IC50 (MCF-7 cells) of 8.34 ± 0.12 µM and an IC50 (T-47D cells) of 8.46 ± 0.65 µM.
For CO[C@@H]1[C@@H](O)[C@H](O[C@@H]2[C@@H](O)[C@H](O[C@H]3[C@H](O)[C@@H](O[C@H]4OC[C@H](O)[C@H](O)[C@@H]4O)[C@H](O[C@H]4[C@H](O[C@H]5CC[C@]6(C)[C@@H]7CC[C@]89C(=O)O[C@@](C)(C[C@@H](O)CC(C)C)[C@H]8[C@@H](OC(C)=O)C[C@@]9(C)C7=CC[C@H]6C5(C)C)OC[C@@H](OS(=O)(=O)O)[C@@H]4O)O[C@@H]3C)OC[C@H]2O)O[C@H](CO)[C@H]1O [frondoside D], the IC50 (HL-60 cells) was 18.08 ± 0.08 µM, the “ED50, Erythrocytes” value (human erythrocytes) was 9.22 ± 0.10 µM and the IC50 (HEK293 cells) was 9.45 ± 0.78 µM. For the same molecule, the IC50 (MDA-MB-231 cells [3]) was 12 ± 1.28 µM, the IC50 (MCF-7 cells) was 23.2 ± 0.92 µM and the IC50 (T-47D cells) was 11.8 ± 1.1 µM.
